Our source for the TGI and GI50 values is PubChem BioAssay (NCI).

Some test systems named below: UACC-257 melanoma; 786-0 renal; HCT-116 colon; T-47D breast; OVCAR-4 ovarian; NCI-H522 lung; U251 CNS; CAKI-1 renal; HL-60(TB) leukemia; A498 renal.
What all share (test): NCI-60 cell line screen, 48 h

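Five concentrations, 48 hours, 96-well plates. GI50 is the concentration that inhibits growth by half. Definition used: TGI = concentration required for complete inhibition of growth.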

Regarding `NC(=O)c1ccc(N)nc1`, the TGI with UACC-257 melanoma, with 786-0 renal, in the assay on HCT-116 colon, in the assay with T-47D breast, in the assay with OVCAR-4 ovarian and in the assay on NCI-H522 lung was above 400 µM in each case. Also, the TGI with U251 CNS, in the assay on CAKI-1 renal, in the assay on HL-60(TB) leukemia and with A498 renal was above 400 µM in each case.

As to `NCCCCN(CCCN)C(=O)OCc1ccccc1`, the TGI in the assay on UACC-257 melanoma, in the assay on 786-0 renal, in the assay with HCT-116 colon, with T-47D breast, in the assay with OVCAR-4 ovarian and with NCI-H522 lung was above 100 µM each time. The TGI in the assay with U251 CNS, in the assay with CAKI-1 renal, in the assay with HL-60(TB) leukemia and in the assay with A498 renal was above 100 µM in each case.

Turning to `CN(C)c1ccc(C(=C2C=CC(=[N+](C)C)C=C2)c2c(O)c(S(=O)(=O)[O-])cc3cc(S(=O)(=O)O)ccc23)cc1`, the TGI in the assay with UACC-257 melanoma, in the assay with 786-0 renal, with HCT-116 colon, with T-47D breast, in the assay on OVCAR-4 ovarian and with NCI-H522 lung was above 100 µM in each case. The TGI in the assay on U251 CNS, with CAKI-1 renal and with A498 renal was above 100 µM each time.

For the compound `O=C(/C=C/c1ccco1)c1ccc(Nc2ccnc3cc(Cl)ccc23)cc1`, the GI50 with UACC-257 melanoma was 76 µM; in the assay on T-47D breast it was 82.2 µM; in the assay on OVCAR-4 ovarian, 39.9 µM; in the assay with NCI-H522 lung it was above 100 µM; in the assay with CAKI-1 renal, above 100 µM; in the assay with A498 renal it was 1.29 µM. The TGI with UACC-257 melanoma, with T-47D breast, in the assay on OVCAR-4 ovarian, with NCI-H522 lung, with CAKI-1 renal and in the assay with A498 renal was above 100 µM throughout.

For `CCOC(=O)C(NC(=O)Nc1ccccc1)(Nc1cccc(Cl)c1)C(F)(F)F` (stereo not given), the TGI in the assay with UACC-257 melanoma, with 786-0 renal, with HCT-116 colon, in the assay with T-47D breast, with NCI-H522 lung and in the assay with U251 CNS was above 100 µM each time. Also, the TGI in the assay on CAKI-1 renal, in the assay with HL-60(TB) leukemia and in the assay on A498 renal was above 100 µM in each case.

With `CC(=O)O/N=C1\C=Cc2c(no[n+]2[O-])C1=O`, the TGI was 32.2 µM with UACC-257 melanoma; 33.5 µM in the assay with 786-0 renal; 27.6 µM in the assay with HCT-116 colon; 57.5 µM in the assay on T-47D breast; 31.5 µM with OVCAR-4 ovarian; 32.8 µM in the assay on NCI-H522 lung. Further, the TGI with CAKI-1 renal is 35.8 µM; with A498 renal it was 30.3 µM.

With `CCOC(=O)C(C(N)=O)c1nc2cc([N+](=O)[O-])ccc2nc1/C=C(\O)c1ccc(C)cc1` (stereo not given), the TGI was above 100 µM in the assay on UACC-257 melanoma; 28.7 µM in the assay on 786-0 renal; 55.4 µM with HCT-116 colon; above 100 µM with T-47D breast; above 100 µM in the assay with OVCAR-4 ovarian; 47.8 µM in the assay on NCI-H522 lung. Besides, the results for the TGI in the assay on U251 CNS, in the assay with CAKI-1 renal and with A498 renal were 33.5 µM, above 100 µM and above 67.7 µM, respectively.

Regarding `C=CCn1c(-c2ccc(N=NNc3ccc(-c4n[nH]c(=S)n4CC=C)cc3)cc2)n[nH]c1=S`, the TGI with UACC-257 melanoma is above 100 µM; with 786-0 renal, 25.4 µM; with T-47D breast, 4.76 µM; with OVCAR-4 ovarian, 6.35 µM; in the assay with NCI-H522 lung it was above 100 µM; in the assay on U251 CNS, 17.5 µM. For the same compound, the TGI in the assay with CAKI-1 renal was 19.1 µM; in the assay on A498 renal, above 100 µM.

For `CCCCOP(=O)(OCCCC)C(NS(=O)(=O)c1ccccc1)(C(=O)OCC)C(F)(F)F` (stereo not given), the TGI was 79.3 µM in the assay with UACC-257 melanoma; 88.1 µM in the assay on 786-0 renal; 66.9 µM with HCT-116 colon; above 100 µM in the assay on T-47D breast; 94.9 µM in the assay with OVCAR-4 ovarian; 65 µM in the assay on U251 CNS. Further, the TGI is above 100 µM in the assay on CAKI-1 renal, 47.8 µM in the assay with HL-60(TB) leukemia and 76.1 µM in the assay with A498 renal.

As for `COc1cc(C(C)(C)C)c(OC(=O)/C=C/C(=O)O/C=C/[N+](=O)[O-])c(C(C)(C)C)c1`, the TGI in the assay on UACC-257 melanoma was above 100 µM; with 786-0 renal, above 100 µM; with HCT-116 colon, above 100 µM; in the assay with T-47D breast it was above 100 µM; in the assay on NCI-H522 lung, 85.7 µM; in the assay with U251 CNS, above 100 µM. In addition, the TGI in the assay on CAKI-1 renal came to 57.5 µM; in the assay with HL-60(TB) leukemia it was 4.29 µM; in the assay on A498 renal, 96.6 µM.

`CC(C)=CCC[C@@H](C)c1c(O)c(O)c(C)c2nc3ccccc3nc12`: the TGI was 12.7 µM in the assay on UACC-257 melanoma; 12.1 µM in the assay on 786-0 renal; 12.2 µM in the assay on HCT-116 colon; 10.6 µM in the assay with T-47D breast; 19.9 µM in the assay with OVCAR-4 ovarian; 22.8 µM in the assay on U251 CNS. Moreover, the TGI in the assay on CAKI-1 renal amounted to 9.01 µM; in the assay with HL-60(TB) leukemia it was 2.98 µM; with A498 renal it was 7.97 µM.

Regarding `O=C1N2CCN=C2c2ccccc2C1(O)c1ccccc1` (stereo not given), the TGI in the assay on UACC-257 melanoma, with 786-0 renal, in the assay on HCT-116 colon, in the assay with T-47D breast, with OVCAR-4 ovarian and in the assay on U251 CNS was above 100 µM throughout. The TGI in the assay on CAKI-1 renal, in the assay on HL-60(TB) leukemia and with A498 renal was above 100 µM throughout.

Regarding `CC1CN=C(c2ccc3c(c2)Cc2cc(C4=NCC(C)N4)ccc2-3)N1` (stereo not given), the TGI with UACC-257 melanoma is above 100 µM; in the assay with 786-0 renal, above 100 µM; in the assay on HCT-116 colon it was above 100 µM; in the assay on T-47D breast, above 100 µM; in the assay on OVCAR-4 ovarian, 48.6 µM; with NCI-H522 lung, 57.4 µM. Besides, the results for the TGI with U251 CNS, in the assay with CAKI-1 renal and with A498 renal were 46.7 µM, above 100 µM and above 100 µM, respectively.

On to `O=C(O)C(C1NCCS1)N1Cc2ccccc2C1` (stereo not given), for which the TGI with UACC-257 melanoma, in the assay with 786-0 renal, in the assay with HCT-116 colon, in the assay with T-47D breast, in the assay with OVCAR-4 ovarian and in the assay on U251 CNS was above 100 µM throughout. Besides, the TGI in the assay with CAKI-1 renal, in the assay with HL-60(TB) leukemia and in the assay with A498 renal was above 100 µM in each case.

As to `COC(CO[Si](C)(C)N[Si](C)(C)OCC(OC)c1ccccc1)c1ccccc1` (stereo not given), the TGI in the assay with UACC-257 melanoma, in the assay with 786-0 renal, in the assay on HCT-116 colon, in the assay with T-47D breast, in the assay on OVCAR-4 ovarian and in the assay on U251 CNS was above 100 µM each time. The TGI with CAKI-1 renal, with HL-60(TB) leukemia and with A498 renal was above 100 µM in each case.

As for `Cc1cc([C@H](C#N)c2nc3ccccc3s2)nc(Cl)n1`, the TGI is 22.4 µM in the assay on UACC-257 melanoma; 29.8 µM in the assay on 786-0 renal; 15.3 µM in the assay with HCT-116 colon; 31.6 µM in the assay on T-47D breast; above 100 µM with OVCAR-4 ovarian; 12.4 µM in the assay with U251 CNS. The TGI in the assay with CAKI-1 renal is 31 µM; in the assay with HL-60(TB) leukemia it was above 100 µM; with A498 renal, 31.3 µM.

In the case of `O=C(O)CC(Cc1ccccc1)C(=O)O` (stereo not given), the TGI with UACC-257 melanoma, in the assay on 786-0 renal, in the assay on HCT-116 colon, in the assay on T-47D breast, with OVCAR-4 ovarian and in the assay with NCI-H522 lung was above 100 µM throughout. Also, the TGI in the assay with U251 CNS, in the assay with CAKI-1 renal and in the assay with A498 renal was above 100 µM each time.

For the compound `COc1ccc(NC(=O)c2cc(NC(=O)/C=C/c3ccccc3)c(OC)c(OC)c2)cc1`, the TGI with UACC-257 melanoma, in the assay with 786-0 renal, in the assay on HCT-116 colon, in the assay on T-47D breast, with OVCAR-4 ovarian and in the assay with U251 CNS was above 100 µM in each case. The TGI in the assay with CAKI-1 renal is above 100 µM; with HL-60(TB) leukemia, 45.4 µM; with A498 renal it was above 100 µM.

Consider `C(=C/c1ccc2nc(-c3ccc(/C=C/C=N/NC4=NCCCN4)cc3)cn2c1)/C=N/NC1=NCCCN1`, for which the TGI is above 100 µM in the assay with UACC-257 melanoma; above 100 µM in the assay on 786-0 renal; above 100 µM in the assay with HCT-116 colon; above 100 µM in the assay with T-47D breast; above 100 µM in the assay on OVCAR-4 ovarian; 34.3 µM with NCI-H522 lung. Moreover, the figures for the TGI in the assay with U251 CNS, with CAKI-1 renal and in the assay on A498 renal were above 100 µM, 30.2 µM and above 100 µM, respectively.

Consider `N#CCCN(CCN(CCN(C(=O)Nc1ccccc1)c1ccccc1)C(=O)Nc1ccccc1)C(=O)Nc1ccccc1`, for which the TGI with UACC-257 melanoma, in the assay with 786-0 renal, in the assay with HCT-116 colon, with T-47D breast, in the assay on OVCAR-4 ovarian and in the assay with U251 CNS was above 100 µM in each case. Also, the TGI in the assay with CAKI-1 renal and in the assay with A498 renal was above 100 µM in each case.

With `Cc1cc2nc(N)n[n+]([O-])c2cc1C`, the TGI in the assay with UACC-257 melanoma, in the assay with 786-0 renal, with HCT-116 colon, in the assay on T-47D breast, in the assay on NCI-H522 lung and in the assay on U251 CNS was above 100 µM in each case. In addition, the TGI with CAKI-1 renal, with HL-60(TB) leukemia and with A498 renal was above 100 µM each time.

Take `c1ccc2c(c1)N=c1ccccc1=P21c2ccccc2Nc2ccccc21`: the TGI stood at 2.73 µM in the assay on UACC-257 melanoma; 11.7 µM with 786-0 renal; 1.76 µM in the assay with HCT-116 colon; 1.63 µM in the assay with T-47D breast; 19.9 µM in the assay with OVCAR-4 ovarian; 0.913 µM in the assay with NCI-H522 lung. Also, the TGI in the assay on U251 CNS was determined as 11.3 µM; in the assay with CAKI-1 renal, 8.02 µM; in the assay with A498 renal, 5.56 µM.
